Results on 4 compounds are retold here after patent US20220111094A1, “PATHOGEN DECONTAMINATION OF PERSONAL PROTECTIVE EQUIPMENT (PPE), FACE FILTERING R[…] (FFR) AND SINGLE USE MEDICAL DEVICES (SUD)” (priority 2020, published 2022).

Structures are written as SMILES.

Assay type in all cases: cell-based
The test system of one assay is HIV-1. The assay can be described thus: SuperFluids CFI decontamination of medical devices (MDV experiments), residual virus by TCID50. The note with it: medical device components such as N95 masks.
A further assay has as its system EMC. The assay can be described thus: CFI virus inactivation of EMC in a FBS matrix. The note with it: 50° C., 3,000 psig, previous data. The method, then:
Since Freon-22 use and production may be adversely impacted by future environmental concerns, we evaluated alternate refrigerants. Per the listing of thermodynamic properties in Table 1, Freon-23 (trifluoromethane) appears to be an excellent CFI™ candidate because: (i) it is non-chlorinated (the chlorine component of chlorofluorocarbons is thought to be responsible for their negative impact on the ozone layer): (ii) it has a low critical temperature of 25.9° C. (allows operation close to critical conditions while minimizing thermal denaturation of heat sensitive materials); and (iii) it has a relatively large dipole moment of 1.6 Debye (a large potential of solubilizing polar lipids and fats). From a comparison of previous data on the CFI™ virus inactivation of EMC in a FBS matrix, Freon-23 appears to be the best alternate to Freon-22. On the average, Freon-23 inactivated ˜3 logs vs. ˜6 logs of EMC at similar conditions of temperature (50° C.) and pressure (3,000 psig).

The subject of assay [1] is murine leukemia virus (MuLV). The assay can be described thus: CFI inactivation of murine leukemia virus at conditions of almost identical density. The note with it: 1,000 psig and 10° C., 2,000 psig and 22° C. and 4,000 psig and 40° C. The method, then: Temperature. In preliminary studies, all experiments were conducted at or around room temperature in order to maximize the […] of the time and temperature control. Under these conditions, most of the CFI experiments were conducted at sub-critical conditions that may not be optimal for virus inactivation. Temperature will have an impact on both the thermodynamic properties of the SuperFluids™, the configurational structure of the virus, and the integrity of the PPEs and SUDs. Temperature with pressure defines the density of SuperFluids™, and their solvation capacities and expansion factors; the former impacts viral kill by a phospholipid solubilization mechanism and the latter by an explosive decompression mechanism. […] CFI™ technology thus favors lower temperatures, which are better for material integrity. Lowering the temperature often requires the lowering of pressure because density is directly (but not linearly) proportional to pressure and inversely proportional to temperature.

Procedure for HIV-1: Virus was eluted from control (black bars) and treated (white bars) beads by incubating them with 1 ml of growth media for 30 minutes at room temperature. The amount of HIV p24 in the eluate was measured in an ELISA.
The decontamination device prototype can be run in two modes: dynamic and static. In the static mode, virus-coated N95 face masks and other PPEs were placed in the CFI™ chamber and contacted with the SuperFluids™ for a specific amount of time at a specified pressure and temperature. The CFI™ chamber is be then rapidly exhausted into the expansion chamber. In the dynamic mode, SuperFluids™ is continuously flowed over the virus-coated glass beads at a rate of 20 mL/min, and slowly exhausted at the end of the experiment.

As to `O=C=O` [Carbon dioxide], in the assay on HIV-1, the “virus inactivation of HIV viruses associated with medical device components” value was “quite effective”. As for `FC(F)Cl` [Freon-22, chlorodifluoromethane], the “logs of EMC inactivated (on the average)” value with EMC is given as roughly 6 logs. As for `[N-]=[N+]=O` [N20, Nitrous Oxide], the “inactivation of MuLV” value in assay [1] is “equally effective”. In the case of `FC(F)F` [Freon-23, trifluoromethane], in the assay on EMC, the “logs of EMC inactivated (on the average)” value is listed as roughly 3 logs.
